In patent publication US20070128217A1 (priority 2003, published 2007):

Experiments:
[1] = system: antibodies in sera from SARS patients (sera 1a, 1b, 2, 6, 37, 62, London, SARS-yellow, SARS-green); assay type: binding, human; parameters: Binding of serum 6 to linear peptides of protein X1 of SARS-CoV Urbani / Binding of serum 37 to linear peptides of protein X1 of SARS-CoV Urbani / Binding of serum 6 to looped/cyclic peptide (PEPSCAN-ELISA) / Binding of serum 37 to looped/cyclic peptide (PEPSCAN-ELISA) / Binding of serum 37 to looped/cyclic peptides of protein X1 of SARS-CoV Urbani / Binding of serum 6 to linear peptides of protein X2 / Binding of serum 37 to linear peptides of protein X2 / Binding of serum 37 to looped/cyclic peptides of protein X2 of SARS-CoV Urbani / Binding of serum 6 to linear peptides of protein M of SARS-CoV Urbani / Binding of serum 37 to linear peptides of protein M of SARS-CoV Urbani / Binding of serum 6 to looped/cyclic peptides of protein M of SARS-CoV Urbani / Binding of serum 37 to looped/cyclic peptides of protein M of SARS-CoV Urbani / Binding of serum 6 to linear peptides of protein X3 of SARS-CoV Urbani / Binding of serum 37 to linear peptides of protein X3 of SARS-CoV Urbani / Binding of serum 37 to looped/cyclic peptides of protein X3 of SARS-CoV Urbani / Binding of serum 6 to linear peptides of protein X4 of SARS-CoV Urbani / Binding of serum 37 to linear peptides of protein X4 of SARS-CoV Urbani / Binding of serum 37 to looped/cyclic peptides of protein X4 of SARS-CoV Urbani / Binding of serum 6 to linear peptides of protein X5 of SARS-CoV Urbani / Binding of serum 37 to linear peptides of protein X5 of SARS-CoV Urbani / Binding of serum 37 to looped/cyclic peptides of protein X5 of SARS-CoV Urbani / Binding of serum 6 to linear peptides of protein N of SARS-CoV Urbani / Binding of serum 37 to linear peptides of protein N of SARS-CoV Urbani / Binding of serum 6 to linear peptide (PEPSCAN-ELISA) / Binding of serum 1a to looped/cyclic peptides of protein N of SARS-CoV Urbani / Binding of serum 1b to looped/cyclic peptides of protein N of SARS-CoV Urbani / Binding of serum 2 to looped/cyclic peptides of protein N of SARS-CoV Urbani / Binding of serum 6 to looped/cyclic peptides of protein N of SARS-CoV Urbani / Binding of serum 37 to looped/cyclic peptides of protein N of SARS-CoV Urbani / Binding of serum 62 to looped/cyclic peptides of protein N of SARS-CoV Urbani / Binding of serum London to looped/cyclic peptides of protein N of SARS-CoV Urbani / Binding of serum SARS-green to looped/cyclic peptides of protein N of SARS-CoV Urbani: unit not given here
[2] = system: control sera (pooled serum of ten healthy LUMC hospital workers; commercial negative donor pooled serum from the Dutch bloodbank); assay type: binding, human; parameters: Binding of Control serum LUMC to linear peptides / Binding of Control serum Blood-bank to linear peptides / Binding of Control serum LUMC to looped peptides / Binding of Control Serum Blood-Bank to Looped peptides / Binding of Control serum LUMC to linear peptides of the protein M of SARS-CoV Urbani / Binding of Control serum Blood-bank to linear peptides of the protein M of SARS-CoV Urbani / Binding of Control serum LUMC to looped peptides of the protein M of SARS-CoV Urbani / Binding of Control Serum Blood-Bank to Looped peptides of the protein M of SARS-CoV Urbani: unit not given here
[3] = system: rabbit serum obtained by immunizing a rabbit with the SARS-CoV strain Frankfurt 1; assay type: binding; parameters: Binding of a rabbit serum to linear peptides / Binding of a rabbit serum to looped peptides / Rabbit serum linear peptides / Rabbit serum looped peptides / Binding of a rabbit serum to linear peptides of protein N of SARS-CoV Urbani (Rabbit serum linear peptides) / Binding of a rabbit serum to looped/cyclic peptides of protein N of SARS-CoV Urbani (Rabbit serum looped peptides): unit not given here

| Sequence | Recognition of the peptide by sera of SARS-CoV infected individuals, and form (linear, looped/cyclic) in which it is recognized [1] | Binding of Control Serum Blood-Bank to Looped peptides [2] | Binding of Control serum Blood-bank to linear peptides [2] | Binding of Control serum LUMC to linear peptides [2] | Binding of Control serum LUMC to looped peptides [2] | Binding of a rabbit serum to linear peptides [3] | Binding of a rabbit serum to looped peptides [3] | Binding of serum 1a to linear peptides of protein M of SARS-CoV Urbani [1] | Binding of serum 1b to linear peptides of protein M of SARS-CoV Urbani [1] | Binding of serum 2 to linear peptides of protein M of SARS-CoV Urbani [1] | Binding of serum 6 to linear peptides of protein M of SARS-CoV Urbani [1] | Binding of serum 37 to linear peptides of protein M of SARS-CoV Urbani [1] | Binding of serum 62 to linear peptides of protein M of SARS-CoV Urbani [1] | Binding of serum London to linear peptides of protein M of SARS-CoV Urbani [1] | Binding of serum SARS-green to linear peptides of protein M of SARS-CoV Urbani [1] | Binding of serum SARS-yellow to linear peptides of protein M of SARS-CoV Urbani [1] | Binding of Control Serum Blood-Bank to Looped peptides of the protein M of SARS-CoV Urbani [2] | Binding of Control serum Blood-bank to linear peptides of the protein M of SARS-CoV Urbani [2] | Binding of Control serum LUMC to linear peptides of the protein M of SARS-CoV Urbani [2] | Binding of Control serum LUMC to looped peptides of the protein M of SARS-CoV Urbani [2] | other results |
| --- | --- | --- | --- | --- | --- | --- | --- | --- | --- | --- | --- | --- | --- | --- | --- | --- | --- | --- | --- | --- | --- |
| MSRRRLLACLCKHKK | recognized in linear form | 0.3 | 0.7 | 0.5 | 0.2 | 0.2 | 0.3 |  |  |  |  |  |  |  |  |  |  |  |  |  | Binding of serum 1a to looped/cyclic peptides of protein X2 of SARS-CoV Urbani [1]: 0.2; Binding of serum 1b to looped/cyclic peptides of protein X2 of SARS-CoV Urbani [1]: 0.1; Binding of serum 2 to looped/cyclic peptides of protein X2 of SARS-CoV Urbani [1]: 0.0; Binding of serum 6 to looped/cyclic peptides of protein X2 of SARS-CoV Urbani [1]: 0.1; Binding of serum 37 to looped/cyclic peptides of protein X2 of SARS-CoV Urbani [1]: 0.2; Binding of serum 62 to looped/cyclic peptides of protein X2 of SARS-CoV Urbani [1]: 0.3; Binding of serum London to looped/cyclic peptides of protein X2 of SARS-CoV Urbani [1]: 0.1; Binding of serum SARS-green to looped/cyclic peptides of protein X2 of SARS-CoV Urbani [1]: 0.1; Binding of serum SARS-yellow to looped/cyclic peptides of protein X2 of SARS-CoV Urbani [1]: 0.1 |
| MWLSYFVASFRLFAR | recognized in looped/cyclic form |  |  |  |  |  |  | 0.6 | 0.3 | 0.5 | 0.3 | 0.6 | 0.7 | 0.3 | 0.2 | 0.1 | 0.7 | 0.5 | 0.2 | 0.7 | Rabbit serum linear peptides [3]: 0.4; Rabbit serum looped peptides [3]: 0.5 |
| MWSFNPETNILLNVP |  |  |  |  |  |  |  | 0.8 | 0.5 | 0.8 | 0.4 | 0.9 | 0.9 | 0.3 | 0.3 | 0.1 | 0.8 | 0.9 | 0.5 | 0.8 | Binding of serum 1a to looped/cyclic peptides of protein M of SARS-CoV Urbani [1]: 0.8; Binding of serum 1b to looped/cyclic peptides of protein M of SARS-CoV Urbani [1]: 0.7; Binding of serum 2 to looped/cyclic peptides of protein M of SARS-CoV Urbani [1]: 0.9; Binding of serum 6 to looped/cyclic peptides of protein M of SARS-CoV Urbani [1]: 0.5; Binding of serum 37 to looped/cyclic peptides of protein M of SARS-CoV Urbani [1]: 0.8; Binding of serum 62 to looped/cyclic peptides of protein M of SARS-CoV Urbani [1]: 0.8; Binding of serum London to looped/cyclic peptides of protein M of SARS-CoV Urbani [1]: 0.2; Binding of serum SARS-green to looped/cyclic peptides of protein M of SARS-CoV Urbani [1]: 0.3; Binding of serum SARS-yellow to looped/cyclic peptides of protein M of SARS-CoV Urbani [1]: 0.6; Rabbit serum linear peptides [3]: 0.4; Rabbit serum looped peptides [3]: 0.2 |
| NATFFIFNKLVKDPP |  | 0.3 | 0.4 | 0.4 | 0.4 | 0.1 | 0.3 |  |  |  |  |  |  |  |  |  |  |  |  |  | Binding of serum 1a to linear peptides of protein X1 of SARS-CoV Urbani [1]: 0.6; Binding of serum 1a to looped/cyclic peptides of protein X1 of SARS-CoV Urbani [1]: 0.5; Binding of serum 1b to linear peptides of protein X1 of SARS-CoV Urbani [1]: 0.5; Binding of serum 1b to looped/cyclic peptides of protein X1 of SARS-CoV Urbani [1]: 0.3; Binding of serum 2 to linear peptides of protein X1 of SARS-CoV Urbani [1]: 0.4; Binding of serum 2 to looped/cyclic peptides of protein X1 of SARS-CoV Urbani [1]: 0.3; Binding of serum 6 to linear peptides of protein X1 of SARS-CoV Urbani [1]: 0.4; Binding of serum 6 to looped/cyclic peptides of protein X1 of SARS-CoV Urbani [1]: 0.4; Binding of serum 37 to linear peptides of protein X1 of SARS-CoV Urbani [1]: 0.5; Binding of serum 37 to looped/cyclic peptides of protein X1 of SARS-CoV Urbani [1]: 0.4; Binding of serum 62 to linear peptides of protein X1 of SARS-CoV Urbani [1]: 0.4; Binding of serum 62 to looped/cyclic peptides of protein X1 of SARS-CoV Urbani [1]: 0.4; Binding of serum London to linear peptides of protein X1 of SARS-CoV Urbani [1]: 0.2; Binding of serum London to looped/cyclic peptides of protein X1 of SARS-CoV Urbani [1]: 0.2; Binding of serum SARS-green to linear peptides of protein X1 of SARS-CoV Urbani [1]: 0.2; Binding of serum SARS-green to looped/cyclic peptides of protein X1 of SARS-CoV Urbani [1]: 0.2; Binding of serum SARS-yellow to linear peptides of protein X1 of SARS-CoV Urbani [1]: 0.2; Binding of serum SARS-yellow to looped/cyclic peptides of protein X1 of SARS-CoV Urbani [1]: 0.0 |
| NILLNVPLRGTIVTR | recognized in looped/cyclic form |  |  |  |  |  |  | 0.7 | 0.5 | 0.8 | 0.4 | 0.6 | 0.7 | 0.4 | 0.3 | 0.1 | 0.8 | 0.8 | 0.3 | 0.7 | Rabbit serum linear peptides [3]: 0.5; Rabbit serum looped peptides [3]: 0.4 |
| NLLLLFVTIYSHLLL |  | 0.5 | 0.4 | 0.5 | 0.6 | 0.2 | 0.6 |  |  |  |  |  |  |  |  |  |  |  |  |  | Binding of serum 1a to linear peptides of protein X1 of SARS-CoV Urbani [1]: 0.7; Binding of serum 1a to looped/cyclic peptide (PEPSCAN-ELISA) [1]: 0.5; Binding of serum 1b to linear peptides of protein X1 of SARS-CoV Urbani [1]: 0.5; Binding of serum 1b to looped/cyclic peptide (PEPSCAN-ELISA) [1]: 0.4; Binding of serum 2 to linear peptides of protein X1 of SARS-CoV Urbani [1]: 0.5; Binding of serum 2 to looped/cyclic peptide (PEPSCAN-ELISA) [1]: 0.4; Binding of serum 6 to linear peptides of protein X1 of SARS-CoV Urbani [1]: 0.4; Binding of serum 6 to looped/cyclic peptide (PEPSCAN-ELISA) [1]: 0.2; Binding of serum 37 to linear peptides of protein X1 of SARS-CoV Urbani [1]: 0.5; Binding of serum 37 to looped/cyclic peptide (PEPSCAN-ELISA) [1]: 0.4; Binding of serum 62 to linear peptides of protein X1 of SARS-CoV Urbani [1]: 0.4; Binding of serum 62 to looped/cyclic peptide (PEPSCAN-ELISA) [1]: 0.5; Binding of serum London to linear peptides of protein X1 of SARS-CoV Urbani [1]: 0.2; Binding of serum London to looped/cyclic peptide (PEPSCAN-ELISA) [1]: 0.2; Binding of serum SARS-green to linear peptides of protein X1 of SARS-CoV Urbani [1]: 0.1; Binding of serum SARS-green to looped/cyclic peptide (PEPSCAN-ELISA) [1]: 0.2; Binding of serum SARS-yellow to linear peptides of protein X1 of SARS-CoV Urbani [1]: 0.3; Binding of serum SARS-yellow to looped/cyclic peptide (PEPSCAN-ELISA) [1]: 0.4 |
